Broadly, the inhibition is how much of the control response was suppressed. The term IC50 denotes the concentration that inhibits the measured activity by half.

Our source for the inhibition, Activity and IC50 values is ChEMBL document CHEMBL3875218, “Bifunctional conjugates with potent inhibitory activity towards cyclooxygenase and histone deacetylase” (Bioorg Med Chem, 2017).

The target in assay [1] is T1, Prostaglandin G/H synthase 1 (Ovis aries) (UniProt P05979).
T1 sequence (whole entry): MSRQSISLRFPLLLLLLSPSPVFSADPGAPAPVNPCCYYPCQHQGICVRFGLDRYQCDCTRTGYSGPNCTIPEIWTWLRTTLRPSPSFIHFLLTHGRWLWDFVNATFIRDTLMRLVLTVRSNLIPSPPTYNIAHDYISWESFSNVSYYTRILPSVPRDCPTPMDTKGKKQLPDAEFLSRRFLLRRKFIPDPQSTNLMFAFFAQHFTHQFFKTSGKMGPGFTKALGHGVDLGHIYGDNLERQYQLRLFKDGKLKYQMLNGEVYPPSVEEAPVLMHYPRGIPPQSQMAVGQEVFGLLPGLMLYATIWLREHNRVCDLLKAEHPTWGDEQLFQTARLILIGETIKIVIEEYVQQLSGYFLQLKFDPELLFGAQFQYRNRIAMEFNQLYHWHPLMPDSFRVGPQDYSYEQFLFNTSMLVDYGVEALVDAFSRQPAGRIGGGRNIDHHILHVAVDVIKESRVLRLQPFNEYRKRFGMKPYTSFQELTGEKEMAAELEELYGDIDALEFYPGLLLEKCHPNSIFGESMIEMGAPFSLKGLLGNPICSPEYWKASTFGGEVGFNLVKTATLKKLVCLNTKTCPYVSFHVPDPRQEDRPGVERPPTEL
Description: Inhibition of sheep COX1 at 10 uM using arachidonic acid as substrate preincubated for 15 mins followed by substrate addition for 2 mins by Cayman based fluorescence assay.

Assay [2] has as its system LNCaP. Description: Induction of cell cycle arrest in human LNCAP cells assessed as accumulation at greater G2 phase at 2.5 uM after 24 hrs by propidium iodide staining based FACS analysis (reference value: 0.20%). It is filed as functional. On the technique in general: A flow cytometer gives signals particle by particle.
Assay [3] deals with LNCaP. Description: Induction of cell cycle arrest in human LNCAP cells assessed as accumulation at lesser G1 phase at 2.5 uM after 24 hrs by propidium iodide staining based FACS analysis (reference value: 1.59%). It is filed as functional.
Assay [4] addresses Histone deacetylase 2 (Homo sapiens, UniProt Q92769). Nature of the assay: Inhibition of HDAC2 (unknown origin) after 24 hrs by SAMDI mass spectroscopic analysis.
For assay [5], the system named is LNCaP. Nature of the assay: Inhibition of class 1 HDAC in human LNCAP cells assessed as acetylated histone H4 accumulation after 24 hrs by Western blot analysis. It is filed as cell-based. On the technique in general: A western blot detects proteins with antibodies after separation by electrophoresis.
Assay [6] has as its target Histone deacetylase 1 (Homo sapiens, UniProt Q13547). Nature of the assay: Inhibition of HDAC1 (unknown origin) after 24 hrs by SAMDI mass spectroscopic analysis.
In assay [7] the target is T2, Prostaglandin G/H synthase 2 (Homo sapiens, UniProt P35354).
T2 sequence (P35354 whole entry): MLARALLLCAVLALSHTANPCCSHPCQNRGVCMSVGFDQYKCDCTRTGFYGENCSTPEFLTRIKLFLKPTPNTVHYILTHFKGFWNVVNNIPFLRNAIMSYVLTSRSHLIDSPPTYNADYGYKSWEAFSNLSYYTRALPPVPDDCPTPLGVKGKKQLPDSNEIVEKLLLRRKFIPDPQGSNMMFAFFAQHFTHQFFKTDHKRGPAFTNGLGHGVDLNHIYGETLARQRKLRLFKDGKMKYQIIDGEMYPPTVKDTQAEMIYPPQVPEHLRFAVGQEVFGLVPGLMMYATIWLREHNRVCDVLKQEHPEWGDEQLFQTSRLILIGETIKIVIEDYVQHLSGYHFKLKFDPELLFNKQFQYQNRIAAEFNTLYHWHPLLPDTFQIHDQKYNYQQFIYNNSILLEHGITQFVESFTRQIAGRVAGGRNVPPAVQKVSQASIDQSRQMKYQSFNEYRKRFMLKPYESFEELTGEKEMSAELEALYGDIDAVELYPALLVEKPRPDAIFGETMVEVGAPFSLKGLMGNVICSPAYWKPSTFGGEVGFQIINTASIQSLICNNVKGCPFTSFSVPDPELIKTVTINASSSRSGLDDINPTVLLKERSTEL
Description: Inhibition of recombinant human COX2 using arachidonic acid as substrate preincubated for 15 mins followed by substrate addition for 2 mins by Cayman based fluorescence assay.

The target of assay [8] is T3, Prostaglandin G/H synthase 1 (Ovis aries, UniProt P05979).
T3 sequence (P05979 whole entry): T1 sequence (whole entry)
Nature of the assay: Inhibition of sheep COX1 using arachidonic acid as substrate preincubated for 15 mins followed by substrate addition for 2 mins by Cayman based fluorescence assay.

Assay [9] has as its target T4, Protein deacetylase HDAC6 (Homo sapiens) (UniProt Q9UBN7).
T4 sequence (whole entry): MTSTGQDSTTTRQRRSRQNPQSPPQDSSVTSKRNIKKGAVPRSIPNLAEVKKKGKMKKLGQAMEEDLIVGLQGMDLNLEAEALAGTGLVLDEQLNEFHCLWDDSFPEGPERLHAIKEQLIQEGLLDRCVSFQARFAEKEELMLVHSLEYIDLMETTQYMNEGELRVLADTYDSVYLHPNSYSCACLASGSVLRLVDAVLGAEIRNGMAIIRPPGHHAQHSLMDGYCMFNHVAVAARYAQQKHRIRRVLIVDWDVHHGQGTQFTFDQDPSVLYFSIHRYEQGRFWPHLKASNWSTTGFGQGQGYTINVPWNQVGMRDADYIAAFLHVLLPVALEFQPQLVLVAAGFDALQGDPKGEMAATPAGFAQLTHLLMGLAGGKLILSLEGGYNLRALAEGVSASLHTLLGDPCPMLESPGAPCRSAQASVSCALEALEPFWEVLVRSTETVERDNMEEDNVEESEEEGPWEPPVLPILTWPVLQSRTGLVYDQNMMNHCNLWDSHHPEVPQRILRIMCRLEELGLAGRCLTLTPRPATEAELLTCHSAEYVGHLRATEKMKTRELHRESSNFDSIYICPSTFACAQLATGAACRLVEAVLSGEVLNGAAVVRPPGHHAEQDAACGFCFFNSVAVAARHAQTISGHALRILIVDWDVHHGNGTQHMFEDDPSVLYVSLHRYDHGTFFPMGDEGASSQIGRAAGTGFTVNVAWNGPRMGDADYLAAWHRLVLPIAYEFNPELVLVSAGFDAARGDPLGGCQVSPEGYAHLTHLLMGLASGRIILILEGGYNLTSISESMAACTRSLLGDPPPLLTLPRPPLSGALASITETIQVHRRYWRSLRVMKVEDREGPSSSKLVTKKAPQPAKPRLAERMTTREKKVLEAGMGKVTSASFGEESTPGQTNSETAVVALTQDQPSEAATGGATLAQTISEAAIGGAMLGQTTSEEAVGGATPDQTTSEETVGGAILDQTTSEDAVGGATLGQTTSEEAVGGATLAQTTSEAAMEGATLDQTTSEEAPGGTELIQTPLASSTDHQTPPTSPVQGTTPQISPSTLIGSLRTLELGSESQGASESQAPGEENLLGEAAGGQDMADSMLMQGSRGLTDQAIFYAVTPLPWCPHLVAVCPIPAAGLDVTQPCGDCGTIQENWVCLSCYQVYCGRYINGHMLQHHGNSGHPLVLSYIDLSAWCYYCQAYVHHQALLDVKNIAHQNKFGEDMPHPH
Nature of the assay: Inhibition of HDAC6 in human LNCAP cells assessed as acetylated tubulin accumulation in cytosol after 24 hrs by Western blot analysis. It is filed as cell-based.

Histone deacetylase 1, sequence (Q13547 whole entry): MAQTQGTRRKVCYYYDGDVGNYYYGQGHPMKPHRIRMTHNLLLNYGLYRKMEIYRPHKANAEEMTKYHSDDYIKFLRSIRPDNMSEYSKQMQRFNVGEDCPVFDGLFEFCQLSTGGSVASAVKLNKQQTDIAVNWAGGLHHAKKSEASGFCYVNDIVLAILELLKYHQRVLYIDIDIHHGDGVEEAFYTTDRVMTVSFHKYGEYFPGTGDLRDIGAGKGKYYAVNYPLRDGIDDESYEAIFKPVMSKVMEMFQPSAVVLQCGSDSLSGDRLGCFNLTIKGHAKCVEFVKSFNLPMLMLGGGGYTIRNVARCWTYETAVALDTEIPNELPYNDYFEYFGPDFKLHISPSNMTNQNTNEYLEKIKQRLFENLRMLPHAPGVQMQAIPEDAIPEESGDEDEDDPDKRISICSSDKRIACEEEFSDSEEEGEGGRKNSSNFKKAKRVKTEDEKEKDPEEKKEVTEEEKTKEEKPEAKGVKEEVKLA
Histone deacetylase 2, sequence (Q92769 whole entry): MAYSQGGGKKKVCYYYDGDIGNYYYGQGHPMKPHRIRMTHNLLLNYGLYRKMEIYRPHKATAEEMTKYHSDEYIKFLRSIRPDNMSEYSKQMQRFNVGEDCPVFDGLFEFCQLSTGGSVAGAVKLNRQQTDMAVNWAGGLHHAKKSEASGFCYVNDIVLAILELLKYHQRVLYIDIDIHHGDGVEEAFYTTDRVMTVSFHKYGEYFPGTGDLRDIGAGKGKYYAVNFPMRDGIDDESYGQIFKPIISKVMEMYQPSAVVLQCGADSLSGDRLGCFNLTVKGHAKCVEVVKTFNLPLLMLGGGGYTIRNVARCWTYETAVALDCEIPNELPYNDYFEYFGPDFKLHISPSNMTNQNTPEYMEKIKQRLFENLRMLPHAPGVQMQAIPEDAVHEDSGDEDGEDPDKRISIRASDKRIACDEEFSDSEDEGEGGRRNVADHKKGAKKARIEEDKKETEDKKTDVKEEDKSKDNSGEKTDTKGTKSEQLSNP

As to `Cc1ccc(-c2cc(C(F)(F)F)nn2-c2ccc(S(=O)(=O)NCCCCCCC(=O)NO)cc2)cc1`, the inhibition in assay [1] is 61.4%; in [5], “Dose-dependent effect”; in [9], “Dose-dependent effect”. For the same compound, the Activity in [2] was 1.67%; in assay [3] it was -0.32%. The IC50 in [4] was 4050 nM; in assay [6] it was 1030 nM; in assay [7], 300 nM; in assay [8] it was 3570 nM.

As for `COc1ccc2c(c1)c(CC(=O)NCCCCCCC(=O)NO)c(C)n2C(=O)c1ccc(Cl)cc1`, the inhibition in assay [1] was 22.8%; in assay [5], “Dose-dependent effect”; in assay [9], “Dose-dependent effect”. In addition, the Activity in [2] is on record as 0.35%; in assay [3] it was 1.95%. Further, the IC50 in assay [4] was 854 nM; in assay [6], 980 nM; in assay [7] it was 330 nM; in [8], 21000 nM.
